Test results published in paper PMC7156458, “Synthetic biology based construction of biological activity-related library of fungal decalin-containing diterpenoid pyrones” (Nature Communications, 2020).

Molecular target: Aβ42 (Homo sapiens, UniProt P05067)
Assay: Th-T (thioflavin-T) assay of Aβ42 aggregation
Format: biochemical

Sequence of Aβ42 (P05067 672-713): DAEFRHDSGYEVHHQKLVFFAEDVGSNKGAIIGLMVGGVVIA

Compound: C=C1CCC2C(C)(CCC=C(C)C)C(O)CCC2(C)C1Cc1c(OC)oc(C)c(C(=O)OC)c1=O (stereo not drawn) [Compound 14]
- Fig. 7a Th-T reading, mean of three wells (column suffix _20, reading M101): 1.75
- Fig. 7a Th-T reading, mean of three wells (column suffix _20, reading M102): 1.725
- Fig. 7a Th-T reading, mean of three wells (column suffix _20, reading M103): 1.692
- Fig. 7a Th-T reading, mean of three wells (column suffix _20, reading M104): 1.726
- Fig. 7a Th-T reading, mean of three wells (column suffix _20, reading M105): 1.714
- Fig. 7a Th-T reading, mean of three wells (column suffix _20, reading M106): 1.718
- Th-T fluorescence, mean of three wells (Fig. 7a) (column suffix _50, measurement M19): 0.5495
- Th-T fluorescence, mean of three wells (Fig. 7a) (column suffix _50, measurement M20): 0.5788
- Th-T fluorescence, mean of three wells (Fig. 7a) (column suffix _50, measurement M21): 0.6066
- Th-T fluorescence, mean of three wells (Fig. 7a) (column suffix _50, measurement M22): 0.6351
- Th-T fluorescence, mean of three wells (Fig. 7a) (column suffix _50, measurement M23): 0.669
- Th-T fluorescence, mean of three wells (Fig. 7a) (column suffix _50, measurement M24): 0.7075
- Th-T fluorescence, mean of three wells (Fig. 7a) (column suffix _50, measurement M25): 0.7535
- Th-T fluorescence, mean of three wells (Fig. 7a) (column suffix _50, measurement M26): 0.8076
- Th-T fluorescence, mean of three wells (Fig. 7a) (column suffix _50, measurement M27): 0.8688
- Th-T fluorescence, mean of three wells (Fig. 7a) (column suffix _50, measurement M28): 0.9376
- Th-T fluorescence, mean of three wells (Fig. 7a) (column suffix _50, measurement M29): 1.02
- Th-T assay signal, mean of three wells (Fig. 7a) (column suffix _50, reading M1): 0.5105
- Th-T assay signal, mean of three wells (Fig. 7a) (column suffix _50, reading M2): 0.462
- Th-T assay signal, mean of three wells (Fig. 7a) (column suffix _50, reading M3): 0.4558
- Th-T assay signal, mean of three wells (Fig. 7a) (column suffix _50, reading M4): 0.4485
- Th-T assay signal, mean of three wells (Fig. 7a) (column suffix _50, reading M5): 0.4526
- Th-T assay signal, mean of three wells (Fig. 7a) (column suffix _50, reading M6): 0.449
- Th-T assay signal, mean of three wells (Fig. 7a) (column suffix _50, reading M7): 0.4479
- Th-T assay signal, mean of three wells (Fig. 7a) (column suffix _50, reading M8): 0.4517
- Th-T assay signal, mean of three wells (Fig. 7a) (column suffix _50, reading M9): 0.4533
- Th-T assay signal, mean of three wells (Fig. 7a) (column suffix _50, reading M10): 0.4553
- Th-T assay signal, mean of three wells (Fig. 7a) (column suffix _50, reading M11): 0.4593
- Th-T assay signal, mean of three wells (Fig. 7a) (column suffix _50, reading M12): 0.4664
- Th-T assay signal, mean of three wells (Fig. 7a) (column suffix _50, reading M13): 0.4713
- Th-T assay signal, mean of three wells (Fig. 7a) (column suffix _50, reading M14): 0.4784
- Th-T assay signal, mean of three wells (Fig. 7a) (column suffix _50, reading M15): 0.4927
- Th-T assay signal, mean of three wells (Fig. 7a) (column suffix _50, reading M16): 0.5
- Th-T assay signal, mean of three wells (Fig. 7a) (column suffix _50, reading M17): 0.5148
- Th-T assay signal, mean of three wells (Fig. 7a) (column suffix _50, reading M18): 0.5358
- Fig. 7a Th-T reading, mean of three wells (column suffix _50, reading M85): 2.033
- Fig. 7a Th-T reading, mean of three wells (column suffix _50, reading M86): 1.994
- Fig. 7a Th-T reading, mean of three wells (column suffix _50, reading M87): 1.943
- Fig. 7a Th-T reading, mean of three wells (column suffix _50, reading M88): 1.897
- Fig. 7a Th-T reading, mean of three wells (column suffix _50, reading M89): 1.8491
- Fig. 7a Th-T reading, mean of three wells (column suffix _50, reading M90): 1.8142
- Fig. 7a Th-T reading, mean of three wells (column suffix _50, reading M91): 1.746
- Fig. 7a Th-T reading, mean of three wells (column suffix _50, reading M92): 1.726
- Fig. 7a Th-T reading, mean of three wells (column suffix _50, reading M93): 1.698
- Fig. 7a Th-T reading, mean of three wells (column suffix _50, reading M94): 1.676
- Fig. 7a Th-T reading, mean of three wells (column suffix _50, reading M95): 1.616
- Fig. 7a Th-T reading, mean of three wells (column suffix _50, reading M96): 1.587
- Fig. 7a Th-T reading, mean of three wells (column suffix _50, reading M97): 1.553
- Fig. 7a Th-T reading, mean of three wells (column suffix _50, reading M98): 1.5408
- Fig. 7a Th-T reading, mean of three wells (column suffix _50, reading M99): 1.482
- Fig. 7a Th-T reading, mean of three wells (column suffix _50, reading M100): 1.465
- Fig. 7a Th-T reading, mean of three wells (column suffix _50, reading M101): 1.408
- Fig. 7a Th-T reading, mean of three wells (column suffix _50, reading M102): 1.3987
- Fig. 7a Th-T reading, mean of three wells (column suffix _50, reading M103): 1.372
- Fig. 7a Th-T reading, mean of three wells (column suffix _50, reading M104): 1.353
- Fig. 7a Th-T reading, mean of three wells (column suffix _50, reading M105): 1.325
- Fig. 7a Th-T reading, mean of three wells (column suffix _50, reading M106): 1.281
- Th-T fluorescence, mean of three wells (compound at 10, reading M41 of time course): 2.4889
- Th-T fluorescence, mean of three wells (compound at 10, reading M42 of time course): 2.504
- Th-T fluorescence, mean of three wells (compound at 10, reading M43 of time course): 2.483
- Th-T fluorescence, mean of three wells (compound at 10, reading M44 of time course): 2.485
- Th-T fluorescence, mean of three wells (compound at 10, reading M45 of time course): 2.494
- Th-T fluorescence, mean of three wells (compound at 10, reading M46 of time course): 2.517
- Th-T fluorescence, mean of three wells (compound at 10, reading M47 of time course): 2.535
- Th-T fluorescence, mean of three wells (compound at 10, reading M48 of time course): 2.517
- Th-T fluorescence, mean of three wells (compound at 10, reading M49 of time course): 2.512
- Th-T fluorescence, mean of three wells (compound at 10, reading M50 of time course): 2.53
- Th-T fluorescence, mean of three wells (compound at 10, reading M51 of time course): 2.541
- Th-T fluorescence, mean of three wells (compound at 10, reading M52 of time course): 2.557
- Th-T fluorescence, mean of three wells (compound at 10, reading M53 of time course): 2.545
- Th-T fluorescence, mean of three wells (compound at 10, reading M54 of time course): 2.546
- Th-T fluorescence, mean of three wells (compound at 10, reading M55 of time course): 2.573
- Th-T fluorescence, mean of three wells (compound at 10, reading M56 of time course): 2.561
- Th-T fluorescence, mean of three wells (compound at 10, reading M57 of time course): 2.58
- Th-T fluorescence, mean of three wells (compound at 10, reading M58 of time course): 2.605
- Th-T fluorescence, mean of three wells (compound at 10, reading M59 of time course): 2.634
- Th-T fluorescence, mean of three wells (compound at 10, reading M60 of time course): 2.6643
- Th-T fluorescence, mean of three wells (compound at 10, reading M61 of time course): 2.702
- Th-T fluorescence, mean of three wells (compound at 10, reading M62 of time course): 2.713
- Th-T fluorescence, mean of three wells (compound at 20, reading M41 of time course): 2.067
- Th-T fluorescence, mean of three wells (compound at 20, reading M42 of time course): 2.077
- Th-T fluorescence, mean of three wells (compound at 20, reading M43 of time course): 2.068
- Th-T fluorescence, mean of three wells (compound at 20, reading M44 of time course): 2.111
- Th-T fluorescence, mean of three wells (compound at 20, reading M45 of time course): 2.074
- Th-T fluorescence, mean of three wells (compound at 20, reading M46 of time course): 2.138
- Th-T fluorescence, mean of three wells (compound at 20, reading M47 of time course): 2.131
- Th-T fluorescence, mean of three wells (compound at 20, reading M48 of time course): 2.161
- Th-T fluorescence, mean of three wells (compound at 20, reading M49 of time course): 2.157
- Th-T fluorescence, mean of three wells (compound at 20, reading M50 of time course): 2.15
- Th-T fluorescence, mean of three wells (compound at 20, reading M51 of time course): 2.157
- Th-T fluorescence, mean of three wells (compound at 20, reading M52 of time course): 2.143
- Th-T fluorescence, mean of three wells (compound at 20, reading M53 of time course): 2.161
- Th-T fluorescence, mean of three wells (compound at 20, reading M54 of time course): 2.178
- Th-T fluorescence, mean of three wells (compound at 20, reading M55 of time course): 2.1338
- Th-T fluorescence, mean of three wells (compound at 20, reading M56 of time course): 2.09
- Th-T fluorescence, mean of three wells (compound at 20, reading M57 of time course): 2.136
- Th-T fluorescence, mean of three wells (compound at 20, reading M58 of time course): 2.093
- Th-T fluorescence, mean of three wells (compound at 20, reading M59 of time course): 2.054
- Th-T fluorescence, mean of three wells (compound at 20, reading M60 of time course): 2.083
- Th-T fluorescence, mean of three wells (compound at 20, reading M61 of time course): 2.064
- Th-T fluorescence, mean of three wells (compound at 20, reading M62 of time course): 2.104
- Th-T fluorescence, mean of three wells (compound at 50, reading M41 of time course): 4.082
- Th-T fluorescence, mean of three wells (compound at 50, reading M42 of time course): 4.376
- Th-T fluorescence, mean of three wells (compound at 50, reading M43 of time course): 4.613
- Th-T fluorescence, mean of three wells (compound at 50, reading M44 of time course): 4.79
- Th-T fluorescence, mean of three wells (compound at 50, reading M45 of time course): 4.938
- Th-T fluorescence, mean of three wells (compound at 50, reading M46 of time course): 5.058
- Th-T fluorescence, mean of three wells (compound at 50, reading M47 of time course): 5.101
- Th-T fluorescence, mean of three wells (compound at 50, reading M48 of time course): 5.128
- Th-T fluorescence, mean of three wells (compound at 50, reading M49 of time course): 5.105
- Th-T fluorescence, mean of three wells (compound at 50, reading M50 of time course): 5.093
- Th-T fluorescence, mean of three wells (compound at 50, reading M51 of time course): 4.998
- Th-T fluorescence, mean of three wells (compound at 50, reading M52 of time course): 4.942
- Th-T fluorescence, mean of three wells (compound at 50, reading M53 of time course): 4.822
